Data taken from ChEMBL document CHEMBL4665913, “Discovery of CA-4948, an Orally Bioavailable IRAK4 Inhibitor for Treatment of Hematologic Malignancies” (ACS Med Chem Lett, 2020).

Columns and labels:
[1] = Metabolic stability in mouse liver microsomes assessed as parent compound remaining at 1 uM measured upto 60 mins in presence of NADPH by LC-MS/MS analysis; format: ADME, Microsome; details: read-out: Stabilty
[2] = Metabolic stability in rat liver microsomes assessed as parent compound remaining at 1 uM measured upto 60 mins in presence of NADPH by LC-MS/MS analysis; format: ADME, Microsome; details: read-out: Stabilty
[3] = Metabolic stability in human liver microsomes assessed as parent compound remaining at 1 uM measured upto 60 mins in presence of NADPH by LC-MS/MS analysis; format: ADME, Microsome; details: read-out: Stabilty
[4] = Initial plasma concentration in CD1 mouse at 3 mg/kg, iv by LC-MS/MS analysis; format: ADME, organism-based
[5] = AUC (0 to t) in CD-1 mouse at 3 mg/kg, iv measured up to 24 hrs by LC-MS/MS analysis; format: ADME, organism-based; parameters: route intravenous, dose 3 mg/kg, time <=24; details: in vivo
[6] = Volume of distribution in CD1 mouse at 3 mg/kg, iv measured up to 24 hrs by LC-MS/MS analysis; format: ADME, organism-based; details: in vivo
[7] = Clearance in CD1 mouse at 3 mg/kg, iv measured up to 24 hrs by LC-MS/MS analysis; format: ADME, organism-based; details: in vivo
[8] = Half life in CD1 mouse at 3 mg/kg, iv measured up to 24 hrs by LC-MS/MS analysis; format: ADME, organism-based; details: in vivo
[9] = Cmax in CD1 mouse at 10 mg/kg, po measured up to 24 hrs by LC-MS/MS analysis; format: ADME, organism-based; parameters: route oral, dose 10 mg/kg, time <=24; details: in vivo
[10] = AUC (0 to t) in CD-1 mouse at 10 mg/kg, po measured up to 24 hrs by LC-MS/MS analysis; format: ADME, organism-based; parameters: route oral, dose 10 mg/kg, time <=24; details: in vivo
[11] = Tmax in CD1 mouse at 10 mg/kg, po measured up to 24 hrs by LC-MS/MS analysis; format: ADME, organism-based; details: in vivo
[12] = Oral bioavailability in CD1 mouse at 10 mg/kg measured up to 24 hrs by LC-MS/MS analysis; format: ADME, organism-based; details: in vivo
[13] = in vitro; details: human, Caco-2

remaining at 1 h, 1 µM [1]	remaining at 1 h, 1 µM [2]	remaining at 1 h, 1 µM [3]	C0 [4]	AUC(0-t) at 24 h [5]	Vd [6]	clearance [7]	half-life [8]	Cmax [9]	AUC(0-t) at 24 h [10]	Tmax [11]	bioavailability [12]	Papp A→B at 2 h, 10 µM [13]	Compound
> 95%	> 95%	> 95%	788 ng/mL	928 ng·h/mL	5.57 L/kg	52.2 mL/min/kg	48 min	2530 ng/mL	4490 ng·h/mL	18 min	100%	21.9 ×10⁻⁶ cm/s	Cc1cc(-c2nc(C(=O)Nc3cc4oc(N5CCOCC5)nc4nc3N3CC[C@H](O)C3)co2)ccn1
13%	> 95%	87%	–	–	–	–	–	–	–	–	–	49.4 ×10⁻⁶ cm/s	Cc1cc(-c2nc(C(=O)Nc3cc4oc(N5CCOCC5)nc4nc3C3CC3)co2)ccn1
> 95%	> 95%	> 95%	–	–	–	–	–	–	–	–	–	13.5 ×10⁻⁶ cm/s	Cc1cc(-c2nc(C(=O)Nc3cc4oc(N5CCOCC5)nc4nc3N3CCC(O)CC3)co2)ccn1
82%	> 95%	> 95%	–	–	–	–	–	–	–	–	–	1 ×10⁻⁶ cm/s	Cc1cc(-c2nc(C(=O)Nc3cc4oc(N5CCOCC5)nc4nc3N3CC[C@@H](N)C3)co2)ccn1
88%	95%	95%	–	–	–	–	–	–	–	–	–	54.2 ×10⁻⁶ cm/s	Cc1cc(-c2nc(C(=O)Nc3cc4oc(N5CCOCC5)nc4nc3N3CC[C@@H](F)C3)co2)ccn1
